What was measured:
Type in all cases: cell-based, Chinese Hamster
[1] = tested on: CHO cell line 1; experiment: Harvest antibody titer (Poros A Protein A affinity HPLC); details: for harvest titer compared to unsupplemented control: 1-50 mM supplementation
Method: (§1) A recombinant Chinese Hamster Ovary (CHO) cell line (Cell Line 1) expressing a humanized monoclonal antibody (Antibody 1) was evaluated in shaker flask cultures. The cell line was of CHO DUX-B11 origin based on a dhfr (dihydrofolate reductase) expression system, and cultured in a chemically defined basal and chemically-defined feed media. Each of the respective cultures were supplemented with selected monosaccharides and oligosaccharides to evaluate for their potential impact on the resulting N-glycan oligosaccharide profile. All sugars were purchased from Sigma-Aldrich (St. Louis, Mo.), and dissolved at the concentrations referenced below in the cell culture media. Unless specified otherwise, all sugars evaluated were in their D-form. In preparation of the cultures, the cell lines were expanded through seed train inoculums to generate enough cells for inoculation.
Antibody titers were measured from crude cell culture harvests on a Poros A™ (Life Technologies, Carlsbad, Calif.) affinity column using an Agilent (Santa Clara, Calif.) 1200 Series HPLC, or equivalent, operating with a low pH, step elution gradient with detection at 280 nm. Absolute concentrations were assigned with respect to reference standard calibration curves.

[2] = tested on: Cell Line 1 expressing a humanized monoclonal antibody (Antibody 1); experiment: N-glycan oligosaccharide profiling of Protein A purified antibody (reduced heavy chain, RP-HPLC/Q-TOF MS); details: for redirecting the N-glycan glycoform profile: 250 mL shaker flask cultures, defined supplementation range
Method: as §1
Purified antibodies subjected to additional analytical characterization were purified using MabSelect™ Protein A (GE Healthcare, Piscataway, N.J.) using a low pH, step elution gradient, followed by neutralization, and subsequently buffer exchanged when necessary using Amicon centrifugal filters (EMD Millipore, Billerica, Mass.) according to the manufacturer's recommended procedure.
The heavy chain of adalimumab was analyzed using an HPLC (Agilent 1260, Santa Clara, Calif.) with a reversed phase column (Vydac, C4, 1×150 mm, 5μ particle size) coupled to a Q-TOF mass spectrometer (Agilent, 6510). Protein A purified samples from cell culture harvests were first reduced using DTT at 37° C. for 30 minutes. The samples were then loaded using 95% mobile phase A (0.08% formic acid and 0.02% TFA in water) and 5% mobile phase B (0.08% formic acid and 0.02% TFA in acetonitrile), and then eluted using a gradient of increasing levels of mobile phase B. The flow rate was 50 μL/min and the column temperature was set to 60° C. The mass spectrometer was operated in positive ion mode with an ion spray voltage of 4500 volts and a source temperature of 350° C. Resolved peaks centered on the known masses of different N-glycans was subsequently used to identify the different types of N-glycans, and the relative peak heights were used to quantitate their respective levels.

[3] = tested on: CHO cell line 1; experiment: Viable cell density and cell viability of shaker flask cultures (trypan blue exclusion, Cedex); details: for peak VCD compared to control: 50 mM supplementation; for cell viability profile: 1-50 mM supplementation; for cell growth compared to the unsupplemented control: sugar 1, 10, 25, 50 mM in basal media, shaker flask
Method: as §1
Viable cell density (VCD) and cell viability values were measured through trypan blue exclusion via Cedex automated cell counters (Roche Applied Science, Indianapolis, Ind.). Initial viable cell density and viability in the cultures were targeted towards the same value. Immediately after inoculation, only a handful of each of the shake flasks were sampled for VCD and viability, and the results were averaged. All Day 0 values amongst these flasks were thus reported to be at this average. The cultures were harvested on Process Days 9-10, or when cell viability dropped below 50%, whichever occurred first.

[4] = 1-50 mM vs unsupplemented control
[5] = the higher concentrations evaluated
[6] = across all supplemented concentrations (1-50 mM)
[7] = each of the concentrations evaluated (1-50 mM)

SMILES | harvest titer compared to unsupplemented control [1] | G0F N-glycan levels [2, 4] | N-glycan oligosaccharide profile change upon supplementation [2, 4] | redirecting the N-glycan glycoform profile [2] | peak VCD compared to control [3] | cell viability profile [3] | cell growth compared to the unsupplemented control [3] | further results
OC[C@H]1O[C@@H](O[C@@H]2[C@@H](CO)OC(O)(CO)[C@H]2O)[C@H](O)[C@@H](O)[C@H]1O (mixture of isomers) [lactulose] | only nominally impacted | approximately equal drop | lactulose dependent increase in Man5, G0F-GlcNAc, and G1F N-glycans | toward the high mannose type | drop in VCD | no adverse impact | only the 50 mM level of this sugar had a slightly adverse impact to cell growth performance | harvest titer ratio ([1]; 50 mM): 0.89
OC[C@H]1O[C@@H](O[C@H]2[C@H](O)[C@@H](O)C(O)O[C@@H]2CO)[C@H](O)[C@@H](O)[C@H]1O (stereo partly drawn) [lactose] | small decrease in harvest titers | almost equal drop | – | toward the complex, galactosylated type | noticeably lower than the control | no adverse impact | no adverse impact towards cell growth performance | relative harvest titer ([1]; 1 mM (lowest across tested concentrations)): 0.87; increase in G1F species ([2]; at most, across 1-50 mM): ≤ 4%; increase in G2F species ([2]; at most, across 1-50 mM): ≤ 2%
OC[C@H]1O[C@@](CO)(O[C@H]2O[C@H](CO)[C@@H](O)[C@H](O)[C@H]2O)[C@@H](O[C@H]2O[C@H](CO)[C@@H](O)[C@H](O)[C@H]2O)[C@@H]1O [melezitose] | nominally reduce the harvest titer | – | largest % impact on the protein glycosylation profile | toward the complex, galactosylated type | drop in peak VCD | no adverse impact | only the 50 mM condition had an adverse impact on cell growth | harvest titer ratio ([1]; 10 mM (lowest result observed)): 0.82; increase in G1F ([2]; 1 mM): 1%; increase in G1F ([2]; 10 mM): 9%; increase in G1F ([2]; 25 mM): 20%; increase in G1F ([2]; 50 mM): 28%; G0 type glycans [2, 4]: almost equal drop in relative value; G2 N-glycan change [2, 4]: mirrored these results, albeit at a much lower overall percent change; Man5 levels ([2]; all tested concentrations): Reduced levels
OC[C@H]1O[C@H](OC[C@H]2OC(O)(CO)[C@@H](O)[C@@H]2O)[C@H](O)[C@@H](O)[C@@H]1O (stereo partly drawn) [palatinose] | slightly less antibody product | significant decrease | increase Man5, G0F-GlcNAc, G1F, and G2F N-glycans in a palatinose concentration-dependent manner | toward the high mannose type | – | reasonably consistent with each other | only the lowest concentration (1 mM) supported a cell growth profile that closely approximated that of the unsupplemented control | peak VCD compared to the unsupplemented control [3, 5]: lower peak viable cell densities
O=C(CO)[C@H](O)[C@H](O)[C@H](O)CO [psicose] | slightly lower compared to the control | dropped in an almost equal fashion | increase Man5, G0F-GlcNAc, and G1F species in a psicose concentration-dependent manner | toward the high mannose type | – | no significant changes | – | harvest titer ratio [1, 6]: > 0.88; peak VCD compared to the unsupplemented control [3, 7]: lower peak VCD
OC[C@H]1O[C@H](OC[C@H]2O[C@H](O[C@]3(CO)O[C@H](CO)[C@@H](O)[C@@H]3O)[C@H](O)[C@@H](O)[C@@H]2O)[C@H](O)[C@@H](O)[C@H]1O [raffinose] | closely approximated each other | – | – | toward the high mannose type | – | closely approximated each other | comparable to the unsupplemented control up to a raffinose concentration of 10 mM | increase in Man5, G0F-GlcNAc, and G1F compared to the unsupplemented control ([2]; concentration-dependent, 1-50 mM): > 2%; peak VCD compared to the unsupplemented control [3, 5]: lower than that of the unsupplemented control
OC[C@H]1O[C@H](O[C@H]2O[C@H](CO)[C@@H](O)[C@H](O)[C@H]2O)[C@H](O)[C@@H](O)[C@@H]1O [trehalose] | slightly lower values | significant decrease | more Man5 and G0F-GlcNAc levels | toward the high mannose type | – | not affected | – | harvest titer ratio [1, 6]: > 0.85; peak VCD compared to the unsupplemented control [3, 7]: lower peak VCD
O=C(CO)[C@@H](O[C@H]1O[C@H](CO)[C@@H](O)[C@H](O)[C@H]1O)[C@H](O)[C@H](O)CO [turanose] | small drop in harvest titer | – | increase of G1F and G2F species, which came at the expense of the G0F and G0F-GlcNAc species | toward the complex, galactosylated type | small nominal drop | did not show a very significant adverse impact | did not show a very significant adverse impact towards cell growth | drop in harvest titer ([1]; 50 mM (largest drop)): 10%; increase in G1F ([2]; 1 mM): 0.2%; increase in G2F ([2]; 10 mM): 3%; increase in G2F ([2]; 25 mM): 7%; increase in G1F ([2]; 50 mM): 14%
